Results on 13 compounds are retold here after US20230331720A1, “MEDIUM- OR MACRO-CYCLIC BENZYL-SUBSTITUTED HETEROCYCLE DERIVATIVES AND THEIR USES AS OREXIN-2 RECEPTOR AGONISTS” (Orexia Therapeutics Limited, priority 2020, published 2023).

Series [1] concerns mouse models of narcolepsy type 1 / WT mice. The following applies: cited from earlier work.
For a further series, the system named is individuals with NT1. To be noted: initial clinical studies; cited from earlier work.
Test in series [2]: not given
This is another data set of the same source.

Where two headings read alike, the source gives them in different places.

As to `CN(C)S(=O)(=O)NC1CCCN2C(=O)CCOc3ccccc3-c3cccc(c3)CC12` (centres unmarked), the ring closure, yield after HPLC (from CN(C)S(=O)(=O)NC1CCCNC1Cc1cccc(-c2ccccc2OCCC(=O)O)c1, amide bond, 12-membered ring, HATU/DIEA, DMF, 0.4 mM, 20.0 °C, 12.0 h) came out at 29.9%.
Turning to `COC(=O)N1CCC[C@H](NS(C)(=O)=O)[C@@H]1CO[C@H]1CC[C@@H](c2ccccc2)CC1` [TAK-925], the wakefulness entry is recorded as “not” in series [1] (subcutaneous administration, OX2R-knockout mice); “modestly increased wakefulness” in series [1] (subcutaneous administration, WT mice); “substantial levels of increased wakefulness” in the series with individuals with NT1. In addition, the cataplexy entry with individuals with NT1 is recorded as “trends for decreasing cataplexy”.
In the case of `COc1ccc(-c2cccc(C(=O)N(C)C)c2)cc1S(=O)(=O)Nc1cccc(NCCNC(=O)c2ccccc2N(C)C)c1` [YNT-185], the “sleep-onset REM periods and cataplexy-like events” value in series [1] (intraperitoneally or ICV, NT1 mouse model) was “decrease sleep-onset REM periods and cataplexy-like events”. Also, the wakefulness result in series [1] (intraperitoneally or ICV, wild type (WT) and orexin ligand-deficient mice) is listed as “modestly increases wakefulness”.
Under “amide bond, 15-membered ring, HATU/DIEA, DCM, 11.7 mM, 25.0 °C”, “N-(1^3,1^5-difluoro-5-oxo-4(2,1)-pyrrolidina-1(1,2),2(1,3)-dibenzenacyclo-undecaphane-4^3-yl)ethanesulfonamide_cis racemic” had a ring closure, yield after HPLC of 8%.
Turning to “N-(1^3,1^5-difluoro-5-oxo-6-aza-4(2,1)-pyrrolidina-1-(1,2),2-(1,3)-dibenzena-cycloundecaphane-4^3-yl)ethanesulfonamide_cis racemic”, the ring closure, yield after HPLC (crosslinker bond, 15-membered ring, CDI/DIEA, DMF, 52.5 mM, 25.0 °C) is 11%.
With “N-(5-oxo-6,9-dioxa-4(2,1)-pyrrolidina-1(1,2),2(1.3)-dibenzenacyclo-nonaphane-4^3-yl)ethanesulfonamide_cis racemic”, the ring closure, yield after HPLC (crosslinker bond, 13-membered ring, CDI/DIEA, DMF, 10.0 mM, 80.0 °C) turned out to be 22%.
Consider “N-(5-oxo-9-oxa-6-aza-4(2,1)-piperidina-1(1,2),2(1,3)-dibenzenacyclo-nonaphane-4^3-yl)methanesulfonamide_cis racemic”, for which the ring closure, isolated yield in series [2] (crosslinker bond, 13-membered ring, CDI/DIEA, DMF, 97.5 mM, 70.0 °C) was determined as 23%.
Regarding “N-(5-oxo-12-oxa-6-aza-4(2,1)-pyrrolidina-1(1,2),2(1,3)-dibenzenacyclo-dodeca phane-43-yl)ethanesulfonamide_cis racemic”, the ring closure, isolated yield in series [2] (crosslinker bond, 16-membered ring, CDI/DIEA, THF/DMF 4:1, 10.0 mM, 70.0 °C) worked out at 38%.
With “N-(5-oxo-12-phenyl-2,3,5,6,7,8,9,10,16,16a-decahydro-1H-benzo[b]pyrrolo[2,1-e][1]oxa[6]azacyclododecin-1-yl)ethanesulfonamide_cis racemic”, for the setting “ether bond, 12-membered ring, K2CO3, DMF, 10.7 mM, 80.0 °C”, the ring closure, yield after HPLC was determined as 10%.
On to “N-(6-methyl-5-oxo-9-oxa-6-aza-4(2,1)-piperidina-1(1,2),2(1,3)-dibenzena-cyclo-nonaphane-4^3-yl)methanesulfonamide_cis racemic”, for which the ring closure, yield after HPLC (crosslinker bond, 13-membered ring, triphosgene/DIEA, DCM, 8.5 mM, 25.0 °C) stood at 3%.
Consider “N-((4^2,4^3S)-5-oxo-8-oxa-4(2,1)-piperidina-1(1,2),2(1.3)-dibenzenacyclo-octaphane-4^3-yl)ethanesulfonamide”, for which the ring closure, yield after HPLC (amide bond, 12-membered ring, HATU/DIEA, DMF, 2.24 mM, 25.0 °C) was found to be 29.4%.
“N-((4^2S,4^3S)-5-oxo-4(2,1)-piperidina-1(1,2),2(1,3)-dibenzenacyclooctaphane-4^3-yl)methanesulfonamide”: in series [2] (amide bond, 12-membered ring, HATU/DIEA, DMF, 6.5 mM), the ring closure, isolated yield came to 6%.
Where the note is “amide bond, 12-membered ring, HATU/DIEA, DMF, 2.31 mM, 25.0 °C”, “N-((4^2S,4^3S)-5-oxo-8-oxa-4(2,1)-piperidina-1(1,2),2(1,3)-dibenzenacyclo-octaphane-4^3-yl)methanesulfonamide” came in with a ring closure, yield after HPLC of 23.4%.
